What is called pIC50 is −log10 of the IC50, conventionally taken in molar units.

pIC50: −log10 of the molar value.

The target of the assay is T1, Syk (Homo sapiens, UniProt P43405).
T1 construct: purchased Carna Biosciences
In words: Syk HTRF assay. It counts as biochemical. The settings on record: read-out: Activity Level (Syk HTRF assay IC50). In outline:
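Read-out is the 665 nm/615 nm time-resolved fluorescence ratio after EDTA stop and Eu-anti-phosphotyrosine plus streptavidin-DyLight 647 detection. Reaction ran 1 h at room temperature with start mix of 87.5 μM ATP and 80 nM substrate peptide in pH 7.6 HEPES/MgCl2 buffer.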
For orientation: Time-resolved FRET reads energy transfer from a long-lived donor to a nearby acceptor.
Consider `CNC(=O)c1ccc(Nc2nc3cccc(-c4cccc(Cl)c4)n3n2)cc1` [compound 13, 4-(5-(3-chlorophenyl)-[1,2,4]triazolo[1,5-a]pyridin-2-ylamino)-N-methylbenzamide], for which the pIC50 is 6.60 to 11.30.

Turning to `Oc1cccc(-c2cccc3nc(Nc4ccc5cnoc5c4)nn23)c1` [compound 14, 3-(2-(benzo[d]isoxazol-6-ylamino)-[1,2,4]triazolo[1,5-a]pyridin-5-yl)phenol], the pIC50 is 6.60 to 11.30.

Regarding `CNC(=O)c1ccc(Nc2nc3cccc(-c4cccc(O)c4)n3n2)c(OC)c1` [compound 15, 4-(5-(3-hydroxyphenyl)-[1,2,4]triazolo[1,5-a]pyridin-2-ylamino)-3-methoxy-N-methylbenzamide], the pIC50 is 6.00 to 6.30.

With `Oc1cccc(-c2cccc3nc(Nc4ccc(-c5ncc[nH]5)cc4)nn23)c1` [compound 16, 3-(2-(4-(1H-imidazol-2-yl)phenylamino)-[1,2,4]triazolo[1,5-a]pyridin-5-yl)phenol], the pIC50 was 6.60 to 11.30.

For `Nc1ccc2cc(Nc3nc4cccc(-c5ccccc5)n4n3)ccc2n1` [compound 17], the pIC50 is 6.60 to 11.30.

For the molecule `CNC(=O)c1ccc(Nc2nc3cccc(-c4cccc(C(N)=O)c4)n3n2)cc1` [compound 18, 4-(5-(3-carbamoylphenyl)-[1,2,4]triazolo[1,5-a]pyridin-2-ylamino)-N-methylbenzamide], the pIC50 is 6.00 to 6.30.

Turning to `Cn1ncc2ccc(Nc3nc4cccc(-c5cccc(O)c5)n4n3)cc21` [compound 19], the pIC50 is 6.60 to 11.30.

For the molecule `CNC(=O)c1ccc(Nc2nc3cccc(-c4cccc(OC)c4)n3n2)cc1` [compound 20, 4-(5-(3-methoxyphenyl)-[1,2,4]triazolo[1,5-a]pyridin-2-ylamino)-N-methylbenzamide], the pIC50 was 6.30 to 6.60.

As to `CNC(=O)c1ccc(Nc2nc3cccc(-c4ccccc4F)n3n2)cc1` [compound 21, 4-(5-(2-fluorophenyl)-[1,2,4]triazolo[1,5-a]pyridin-2-ylamino)-N-methylbenzamide], the pIC50 was 6.00 to 6.30.

Turning to `CNC(=O)c1ccc(Nc2nc3cccc(-c4ccccc4Cl)n3n2)cc1` [compound 22, 4-(5-(2-chlorophenyl)-[1,2,4]triazolo[1,5-a]pyridin-2-ylamino)-N-methylbenzamide], the pIC50 is 5.00 to 6.00.

On to `c1ccc(-c2cccc3nc(Nc4ccc5c(NC6CCNCC6)n[nH]c5c4)nn23)cc1` [compound 23], for which the pIC50 is 6.60 to 11.30.

As to `NCc1ccc(Nc2nc3cccc(-c4cccc(O)c4)n3n2)cc1` [compound 24, 3-(2-(4-(aminomethyl)phenylamino)-[1,2,4]triazolo[1,5-a]pyridin-5-yl)phenol], the pIC50 was 6.30 to 6.60.

In the case of `O=C(O)c1ccc(Nc2nc3cccc(-c4cccc(O)c4)n3n2)cc1` [compound 25, 4-(5-(3-hydroxyphenyl)-[1,2,4]triazolo[1,5-a]pyridin-2-ylamino)benzoic acid], the pIC50 was 6.60 to 11.30.

For the molecule `Oc1ccc2cc(Nc3nc4cccc(-c5ccccc5)n4n3)ccc2n1` [compound 26, 6-(5-phenyl-[1,2,4]triazolo[1,5-a]pyridin-2-ylamino)quinolin-2-ol], the pIC50 is 6.60 to 11.30.

Consider `Oc1cccc(-c2cccc3nc(Nc4ccc5cn[nH]c5c4)nn23)c1` [compound 27, 3-(2-(1H-indazol-6-ylamino)-[1,2,4]triazolo[1,5-a]pyridin-5-yl)phenol], for which the pIC50 is 6.60 to 11.30.

In the case of `Cn1nnc2ccc(Nc3nc4cccc(-c5cccc(O)c5)n4n3)cc21` [compound 28, 3-(2-(1-methyl-1H-benzo[d][1,2,3]triazol-6-ylamino)-[1,2,4]triazolo[1,5-a]pyridin-5-yl)phenol], the pIC50 is 6.60 to 11.30.

As for `CNC(=O)c1ccc(Nc2nc3cccc(-c4ccc(C(=O)O)cc4)n3n2)cc1` [compound 29, 4-(2-(4-(methylcarbamoyl)phenylamino)-[1,2,4]triazolo[1,5-a]pyridin-5-yl)benzoic acid], the pIC50 is 5.00 to 6.00.

Turning to `CNC(=O)c1ccc(Nc2nc3cccc(-c4cccc(C(=O)O)c4)n3n2)cc1` [compound 30, 3-(2-(4-(methylcarbamoyl)phenylamino)-[1,2,4]triazolo[1,5-a]pyridin-5-yl)benzoic acid], the pIC50 is 5.00 to 6.00.

With `CN(C)Cc1nc2ccc(Nc3nc4cccc(-c5ccccc5)n4n3)cc2[nH]1` [compound 31, N-(2-((dimethylamino)methyl)-1H-benzo[d]imidazol-6-yl)-5-phenyl-[1,2,4]triazolo[1,5-a]pyridin-2-amine], the negative logarithm of the IC50 (pIC50) is 6.60 to 11.30.

For the molecule `Oc1cccc(-c2cccc3nc(Nc4ccc(N5CCOCC5)cc4)nn23)c1` [compound 32, 3-(2-(4-morpholinophenylamino)-[1,2,4]triazolo[1,5-a]pyridin-5-yl)phenol], the pIC50 was 6.60 to 11.30.

`CNC(=O)c1ccc(Nc2nc3cccc(-c4cccc(CN)c4)n3n2)cc1` [compound 33, 4-(5-(3-(aminomethyl)phenyl)-[1,2,4]triazolo[1,5-a]pyridin-2-ylamino)-N-methylbenzamide]: the pIC50 was 6.60 to 11.30.

As to `CN1CCC(NC(=O)c2ccc(Nc3nc4cccc(-c5cccc(O)c5)n4n3)cc2)CC1` [compound 34, 4-(5-(3-hydroxyphenyl)-[1,2,4]triazolo[1,5-a]pyridin-2-ylamino)-N-(1-methylpiperidin-4-yl)benzamide], the pIC50 was 6.60 to 11.30.

In the case of `Cn1nc(N)c2ccc(Nc3nc4cccc(-c5ccccc5)n4n3)cc21` [compound 35], the pIC50 was 6.60 to 11.30.

Turning to `CNC(=O)c1ccc(Nc2nc3cccc(-c4cccc(O)c4)n3n2)cc1` [compound 36, 4-(5-(3-hydroxyphenyl)-[1,2,4]triazolo[1,5-a]pyridin-2-ylamino)-N-methylbenzamide], the pIC50 was 6.60 to 11.30.

With `O=S1(=O)NCc2ccc(Nc3nc4cccc(-c5ccccc5)n4n3)cc21` [compound 37], the pIC50 is 6.60 to 11.30.

`COc1cncc(Nc2nc3cccc(-c4ccccc4)n3n2)c1` [compound 38, N-(5-methoxypyridin-3-yl)-5-phenyl-[1,2,4]triazolo[1,5-a]pyridin-2-amine]: the pIC50 was 6.00 to 6.30.

On to `NCCNc1cc(Nc2nc3cccc(-c4ccccc4)n3n2)ccn1` [compound 39], for which the pIC50 was 6.30 to 6.60.

Consider `Nc1cc(Nc2nc3cccc(-c4ccccc4)n3n2)ccn1` [compound 40], for which the pIC50 is 6.00 to 6.30.

For the molecule `c1ccc(-c2cccc3nc(Nc4ccc(N5CCOCC5)nc4)nn23)cc1` [compound 41, N-(6-morpholinopyridin-3-yl)-5-phenyl-[1,2,4]triazolo[1,5-a]pyridin-2-amine], the pIC50 was 6.60 to 11.30.

For the molecule `Nc1noc2ccc(Nc3nc4cccc(-c5ccccc5)n4n3)cc12` [compound 42], the pIC50 was 6.60 to 11.30.

Consider `c1ccc(-c2cccc3nc(Nc4ccc5oncc5c4)nn23)cc1` [compound 43, N-(5-phenyl-[1,2,4]triazolo[1,5-a]pyridin-2-yl)benzo[d]isoxazol-5-amine], for which the pIC50 is 6.60 to 11.30.

As to `Nc1noc2cc(Nc3nc4cccc(-c5ccccc5)n4n3)ccc12` [compound 44], the pIC50 is 6.30 to 6.60.

Take `NCCN1Cc2cc(Nc3nc4cccc(-c5ccccc5)n4n3)ccc2C1=O` [compound 45, 2-(2-aminoethyl)-5-(5-phenyl-[1,2,4]triazolo[1,5-a]pyridin-2-ylamino)isoindolin-1-one]: the pIC50 is 6.30 to 6.60.

In the case of `Cc1nc2cc(Nc3nc4cccc(-c5ccccc5)n4n3)ccc2[nH]1` [compound 46, N-(2-methyl-1H-benzo[d]imidazol-5-yl)-5-phenyl-[1,2,4]triazolo[1,5-a]pyridin-2-amine], the pIC50 was 6.60 to 11.30.

For `Cn1cnc2ccc(Nc3nc4cccc(-c5ccccc5)n4n3)cc21` [compound 47, N-(1-methyl-1H-benzo[d]imidazol-6-yl)-5-phenyl-[1,2,4]triazolo[1,5-a]pyridin-2-amine], the pIC50 is 6.60 to 11.30.

Consider `c1ccc(-c2cccc3nc(Nc4ccc5cnoc5c4)nn23)cc1` [compound 48, N-(5-phenyl-[1,2,4]triazolo[1,5-a]pyridin-2-yl)benzo[d]isoxazol-6-amine], for which the pIC50 was 5.00 to 6.00.

`c1ccc(-c2cccc3nc(Nc4ccc5nn[nH]c5c4)nn23)cc1` [compound 49, N-(5-phenyl-[1,2,4]triazolo[1,5-a]pyridin-2-yl)-1H-benzo[d][1,2,3]triazol-6-amine]: the pIC50 was 6.60 to 11.30.

In the case of `O=C1CCCN1c1ccc(Nc2nc3cccc(-c4ccccc4)n3n2)cc1` [compound 50], the pIC50 was 6.60 to 11.30.

As to `NC(=O)c1cc(Nc2nc3cccc(-c4ccccc4)n3n2)ccn1` [compound 51, 4-(5-phenyl-[1,2,4]triazolo[1,5-a]pyridin-2-ylamino)picolinamide], the pIC50 was 5.00 to 6.00.

On to `N#Cc1cc(Nc2nc3cccc(-c4ccccc4)n3n2)ccn1` [compound 52], for which the pIC50 was 5.00 to 6.00.

Regarding `c1ccc(-c2cccc3nc(Nc4ccc5c(c4)CNC5)nn23)cc1` [compound 53], the pIC50 is 6.60 to 11.30.

Consider `Cn1ncc2ccc(Nc3nc4cccc(-c5ccccc5)n4n3)cc21` [compound 54, N-(1-methyl-1H-indazol-6-yl)-5-phenyl-[1,2,4]triazolo[1,5-a]pyridin-2-amine], for which the pIC50 was 6.60 to 11.30.

On to `Cn1cnc2cc(Nc3nc4cccc(-c5ccccc5)n4n3)ccc21` [compound 55, N-(1-methyl-1H-benzo[d]imidazol-5-yl)-5-phenyl-[1,2,4]triazolo[1,5-a]pyridin-2-amine], for which the pIC50 was 6.30 to 6.60.

Take `c1ccc(-c2cccc3nc(Nc4ccc(-c5ncn[nH]5)cc4)nn23)cc1` [compound 56, N-(4-(1H-1,2,4-triazol-5-yl)phenyl)-5-phenyl-[1,2,4]triazolo[1,5-a]pyridin-2-amine]: the pIC50 is 6.60 to 11.30.

As for `Nc1n[nH]c2cc(Nc3nc4cccc(-c5ccccc5)n4n3)ccc12` [compound 57], the pIC50 was 6.60 to 11.30.

In the case of `c1ccc(-c2cccc3nc(Nc4ccncc4)nn23)cc1` [compound 58, 5-phenyl-N-(pyridin-4-yl)-[1,2,4]triazolo[1,5-a]pyridin-2-amine], the pIC50 was 6.00 to 6.30.

For the molecule `c1ccc(-c2cccc3nc(Nc4ccc5ncccc5c4)nn23)cc1` [compound 59, N-(5-phenyl-[1,2,4]triazolo[1,5-a]pyridin-2-yl)quinolin-6-amine], the pIC50 is 6.60 to 11.30.
